Data from US7994185B2, “Benzene sulfonamide thiazole and oxazole compounds” (Glaxo Smith Kline LLC, priority 2008, dated 2011).
Read-outs that look alike come from different tables or passages of the source.

Assays:
[1] = tested on: Human melanoma cancer cells (SK-MEL-28); test: Cell growth inhibition assay (CellTiter-Glo), SK-MEL-28; format: cell-based
[2] = biological target: T1, BRAFV600E full-length (amino acids 2-766) (Homo sapiens, UniProt P15056, V600E); test: B-Raf Accelerated MEK ATPase assay (BRAMA); format: biochemical; conditions: categorized
T1 construct: His6-tagged BRAFV600E full-length (amino acids 2-766); His6; made in house; host or cells: baculovirus expression system (insect cells)
How it was run: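 Coupled-enzyme readout: ADP generated by MEK-mediated ATP hydrolysis, uncoupled from ERK phosphorylation, is linked to NADH oxidation through pyruvate kinase and lactate dehydrogenase.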

[3] = tested on: Human colon tumor cells (Colo205); test: Cell growth inhibition assay (CellTiter-Glo), Colo205; format: cell-based
Method: Human colon tumor cells (Colo205) were cultured in RPMI (Mediatech 50-020-PB) containing 10% FBS and 1% penicillin-streptomycin.
The next day, compounds were diluted as follow: For 96-well assays, 13.5 μL of compound in DMSO were diluted using nine (9) serial 1:3 dilutions of 4.5 μL in 9 μL of DMSO. Medium (270 μL/well of RPMI with 10% FBS and 1% penicillin-streptomycin) was added to the plates. Aliquots (7 μL) were added to cells in the final assay giving a final DMSO concentration of 0.2%. For 384-well assays, 15 μL of compound in DMSO were diluted using nine (9) serial 1:3 dilutions of 5 μL in 10 μL of DMSO, followed by a further dilution of 5 μL of compound with 95 μL of medium, of which 2 μL were added to cells in the final assay giving a final DMSO concentration of 0.2%. Cells were incubated at 37° C., 5% CO2 for 3 days.
Total ATP was measured (as a surrogate estimate of cell number) using CellTiter-Glo® reagent (Promega G7571). Briefly, plates were removed from the incubator and allowed to equilibrate to room temperature for 30 minutes. CellTiter-Glo® (25 μL or 55 μL for 384-well or 96-well assays, respectively) reagent was added to each well and plates were shaken on an orbital plate shaker for 2 minutes. Plates were incubated without shaking for a further 30 minutes and read on an LJL Analyst GT reader in luminometer mode with an integration time of 0.5 seconds per well. Percent inhibition of cell growth was calculated relative to DMSO vehicle-treated control wells.

[4] = SK-MEL-28, 72 h, Table 3a, 3 days incubation, read-out: Activity in SK-MEL-28 Tumor Cells
[5] = SK-MEL-28, Table 3b, later runs, average for the one or more runs, categorized, read-out: IC50 for SK-MEL-28
[6] = B-Raf Activity, Table 1a, highest pIC50 for the one or more runs
[7] = B-Raf pIC50, Table 1b, later runs, average pIC50 for the one or more runs
[8] = COLO 205, 72 h, Table 2a, 3 days incubation, read-out: Activity in Colo205 Tumor Cells
[9] = COLO 205, Table 2b, later runs, average for the one or more runs, categorized, read-out: IC50 for Colo205
[10] = Table 1b, later runs, average pIC50 for the one or more runs, read-out: B-Raf pIC50 (converted)

T1 sequence (P15056 2-766 V600E): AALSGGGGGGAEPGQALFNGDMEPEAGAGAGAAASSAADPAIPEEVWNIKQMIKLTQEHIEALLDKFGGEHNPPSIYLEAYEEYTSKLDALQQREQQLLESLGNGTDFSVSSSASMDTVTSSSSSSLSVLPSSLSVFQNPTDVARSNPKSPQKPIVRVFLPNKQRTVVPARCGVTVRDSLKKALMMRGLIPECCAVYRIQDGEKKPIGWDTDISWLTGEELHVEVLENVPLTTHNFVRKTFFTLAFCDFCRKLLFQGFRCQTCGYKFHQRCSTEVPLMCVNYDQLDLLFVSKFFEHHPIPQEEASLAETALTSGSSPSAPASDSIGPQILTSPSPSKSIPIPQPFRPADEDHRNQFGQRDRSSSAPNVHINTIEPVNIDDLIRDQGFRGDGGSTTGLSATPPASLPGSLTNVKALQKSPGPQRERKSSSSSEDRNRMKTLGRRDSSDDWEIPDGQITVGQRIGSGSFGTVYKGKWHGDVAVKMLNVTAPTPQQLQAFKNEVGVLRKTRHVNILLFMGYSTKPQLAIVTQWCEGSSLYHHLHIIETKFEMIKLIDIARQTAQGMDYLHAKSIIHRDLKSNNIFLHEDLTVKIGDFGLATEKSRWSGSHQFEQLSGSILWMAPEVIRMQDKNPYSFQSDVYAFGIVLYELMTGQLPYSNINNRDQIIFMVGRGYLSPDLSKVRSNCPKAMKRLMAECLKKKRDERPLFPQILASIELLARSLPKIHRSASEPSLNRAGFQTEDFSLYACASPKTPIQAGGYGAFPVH

Nc1nccc(-c2sc(N3CCOCC3)nc2-c2cccc(NS(=O)(=O)N3CCOCC3)c2F)n1 [Example 50, N-{3-[5-(2-Amino-4-pyrimidinyl)-2-(4-morpholinyl)-1,3-thiazol-4-yl]-2-fluorophenyl}-4-morpholinesulfonamide]
IC50 [1, 4]: > 1000 nM | IC50 [1, 5]: 1000 to 10000 nM | IC50 [2, 6]: 100 to 1000 nM | IC50 [2, 7]: 31.6 to 1000 nM | IC50 [3, 8]: > 1000 nM | IC50 [3, 9]: 1000 to 10000 nM

CC(C)(C)c1nc(-c2c(F)ccc(NS(=O)(=O)c3cc(F)ccc3F)c2F)c(-c2ccnc(N)n2)s1 [Example 258, N-{3-[5-(2-amino-4-pyrimidinyl)-2-(1,1-dimethylethyl)-1,3-thiazol-4-yl]-2,4-difluorophenyl}-2,5-difluorobenzenesulfonamide]
IC50 [1, 5]: < 100 nM | IC50 [2, 7]: ≤ 3.16 nM | IC50 [3, 9]: < 100 nM

COc1ccc(F)cc1S(=O)(=O)Nc1cccc(-c2nc(C(C)C)sc2-c2ccnc(NCC(C)C)n2)c1F [Example 152]
IC50 [1, 4]: < 100 nM | IC50 [1, 5]: < 100 nM | IC50 [2, 6]: < 100 nM | IC50 [2, 10]: 3.16 to 31.6 nM | IC50 [3, 8]: < 100 nM | IC50 [3, 9]: < 100 nM

CC(C)c1nc(-c2ccc(F)c(NS(=O)(=O)c3c(F)cccc3F)c2)c(-c2ccnc(NCCOCCO)n2)s1 [Example 166]
IC50 [1, 4]: 100 to 1000 nM | IC50 [1, 5]: 100 to 1000 nM | IC50 [2, 7]: 31.6 to 1000 nM | IC50 [3, 8]: 100 to 1000 nM | IC50 [3, 9]: 100 to 1000 nM

O=S(=O)(Nc1cccc(-c2nc(C3CCOCC3)sc2-c2ccncn2)c1Cl)c1cc(F)ccc1F [Example 243, N-{2-chloro-3-[5-(4-pyrimidinyl)-2-(tetrahydro-2H-pyran-4-yl)-1,3-thiazol-4-yl]phenyl}-2,5-difluorobenzenesulfonamide]
IC50 [1, 5]: < 100 nM | IC50 [2, 7]: ≤ 3.16 nM | IC50 [3, 9]: < 100 nM

Nc1nccc(-c2sc(C3CCC3)nc2-c2cccc(NS(=O)(=O)c3c(F)cccc3F)c2F)n1 [Example 118]
IC50 [1, 4]: 100 to 1000 nM | IC50 [1, 5]: 100 to 1000 nM | IC50 [2, 6]: < 100 nM | IC50 [2, 7]: ≤ 3.16 nM | IC50 [3, 8]: 100 to 1000 nM | IC50 [3, 9]: 100 to 1000 nM

CC(C)(C)c1nc(-c2cccc(NS(=O)(=O)c3c(F)cccc3F)c2F)c(-c2ccnc(NCCCS(C)(=O)=O)n2)s1 [Example 12, N-{3-[2-(1,1-Dimethylethyl)-5-(2-{[3-(methylsulfonyl)propyl]amino}-4-pyrimidinyl)-1,3-thiazol-4-yl]-2-fluorophenyl}-2,6-difluorobenzenesulfonamide]
IC50 [1, 4]: < 100 nM | IC50 [1, 5]: < 100 nM | IC50 [2, 6]: < 100 nM | IC50 [2, 7]: ≤ 3.16 nM | IC50 [3, 8]: < 100 nM | IC50 [3, 9]: < 100 nM

CC(C)(C)c1nc(-c2cccc(NS(=O)(=O)c3cc(F)ccc3F)c2F)c(-c2ccnc(CCC(=O)N3CCS(=O)(=O)CC3)n2)s1 [Example 255, N-[3-(2-(1,1-dimethylethyl)-5-{2-[3-(1,1-dioxido-4-thiomorpholinyl)-3-oxopropyl]-4-pyrimidinyl}-1,3-thiazol-4-yl)-2-fluorophenyl]-2,5-difluorobenzenesulfonamide]
IC50 [1, 5]: < 100 nM | IC50 [2, 10]: 3.16 to 31.6 nM | IC50 [3, 9]: < 100 nM

CC(C)(C)c1nc(-c2c(F)ccc(NS(=O)(=O)c3c(F)cccc3F)c2F)c(-c2ccnc(N)n2)s1 [Example 107, N-{3-[5-(2-amino-4-pyrimidinyl)-2-(1,1-dimethylethyl)-1,3-thiazol-4-yl]-2,4-difluorophenyl}-2,6-difluorobenzenesulfonamide]
IC50 [1, 4]: < 100 nM | IC50 [1, 5]: < 100 nM | IC50 [2, 6]: < 100 nM | IC50 [2, 7]: ≤ 3.16 nM | IC50 [3, 8]: < 100 nM | IC50 [3, 9]: < 100 nM

CC(C)Nc1nccc(-c2sc(C(C)(C)C)nc2-c2cccc(NS(=O)(=O)c3c(F)cccc3F)c2F)n1 [Example 135]
IC50 [1, 4]: < 100 nM | IC50 [1, 5]: < 100 nM | IC50 [2, 6]: < 100 nM | IC50 [2, 7]: ≤ 3.16 nM | IC50 [3, 8]: 100 to 1000 nM | IC50 [3, 9]: 100 to 1000 nM

CC(C)c1nc(-c2ccc(F)c(NS(=O)(=O)c3ccco3)c2)c(-c2ccnc(NCCCS(C)(=O)=O)n2)s1 [Example 148]
IC50 [1, 4]: > 1000 nM | IC50 [1, 5]: 1000 to 10000 nM | IC50 [2, 6]: < 100 nM | IC50 [2, 10]: 3.16 to 31.6 nM | IC50 [3, 8]: > 1000 nM | IC50 [3, 9]: 1000 to 10000 nM

CC(C)(C)c1nc(-c2cccc(NS(=O)(=O)c3ccccc3F)c2F)c(-c2ccncn2)s1 [Example 224, N-{3-[2-(1,1-dimethylethyl)-5-(4-pyrimidinyl)-1,3-thiazol-4-yl]-2-fluorophenyl}-2-fluorobenzenesulfonamide]
IC50 [1, 5]: < 100 nM | IC50 [2, 7]: ≤ 3.16 nM | IC50 [3, 9]: < 100 nM

Cc1ccc(F)c(S(=O)(=O)Nc2cccc(-c3nc(C(C)(C)C)sc3-c3ccnc(N)n3)c2F)c1 [Example 145]
IC50 [1, 4]: 100 to 1000 nM | IC50 [1, 5]: 100 to 1000 nM | IC50 [2, 6]: < 100 nM | IC50 [2, 7]: 31.6 to 1000 nM | IC50 [3, 8]: 100 to 1000 nM | IC50 [3, 9]: 100 to 1000 nM

CCOCCNc1nccc(-c2sc(C(C)(C)C)nc2-c2cccc(NS(=O)(=O)c3cc(F)ccc3F)c2F)n1 [Example 212]
IC50 [1, 4]: < 100 nM | IC50 [1, 5]: < 100 nM | IC50 [2, 6]: < 100 nM | IC50 [2, 7]: ≤ 3.16 nM | IC50 [3, 8]: < 100 nM | IC50 [3, 9]: < 100 nM

CC(C)(C)c1nc(-c2cccc(NS(=O)(=O)c3cccnc3)c2F)c(-c2ccnc(N)n2)s1 [Example 230, N-{3-[5-(2-amino-4-pyrimidinyl)-2-(1,1-dimethylethyl)-1,3-thiazol-4-yl]-2-fluorophenyl}-3-pyridinesulfonamide]
IC50 [1, 5]: < 100 nM | IC50 [2, 7]: ≤ 3.16 nM | IC50 [3, 9]: < 100 nM

Nc1nccc(-c2sc(C3CCCCC3)nc2-c2cccc(NS(=O)(=O)c3c(F)cccc3F)c2F)n1 [Example 104, N-{3-[5-(2-Amino-4-pyrimidinyl)-2-cyclohexyl-1,3-thiazol-4-yl]-2-fluorophenyl}-2,6-difluorobenzenesulfonamide]
IC50 [1, 4]: < 100 nM | IC50 [1, 5]: < 100 nM | IC50 [2, 6]: < 100 nM | IC50 [2, 7]: ≤ 3.16 nM | IC50 [3, 8]: < 100 nM | IC50 [3, 9]: < 100 nM

CC(C)CNc1nccc(-c2oc(N3CCCC3)nc2-c2cccc(NS(=O)(=O)c3c(F)cccc3F)c2)n1 [Example 111, 2,6-Difluoro-N-{3-[5-{2-[(2-methylpropyl)amino]-4-pyrimidinyl}-2-(1-pyrrolidinyl)-1,3-oxazol-4-yl]phenyl}benzenesulfonamide]
IC50 [1, 5]: 1000 to 10000 nM | IC50 [2, 6]: < 100 nM | IC50 [2, 7]: 31.6 to 1000 nM | IC50 [3, 9]: 1000 to 10000 nM

CC(C)CNc1nccc(-c2scnc2-c2cccc(NS(=O)(=O)c3c(F)cccc3F)c2)n1 [Example 115, 2,6-Difluoro-N-[3-(5-{2-[(2-methylpropyl)amino]-4-pyrimidinyl}-1,3-thiazol-4-yl)phenyl]benzenesulfonamide]
IC50 [1, 4]: > 1000 nM | IC50 [1, 5]: 1000 to 10000 nM | IC50 [2, 6]: > 1000 nM | IC50 [2, 10]: 3.16 to 31.6 nM | IC50 [3, 8]: > 1000 nM | IC50 [3, 9]: 1000 to 10000 nM

CC(C)CNc1nccc(-c2sc(N3CCOCC3)nc2-c2cccc(NS(=O)(=O)c3cc(F)ccc3F)c2F)n1 [Example 182]
IC50 [1, 4]: < 100 nM | IC50 [1, 5]: < 100 nM | IC50 [2, 6]: < 100 nM | IC50 [2, 7]: ≤ 3.16 nM | IC50 [3, 8]: < 100 nM | IC50 [3, 9]: < 100 nM

CC(C)c1nc(-c2ccc(F)c(NS(=O)(=O)c3cc(F)ccc3F)c2)c(-c2ccnc(NC3CC3)n2)s1 [Example 122]
IC50 [1, 4]: > 1000 nM | IC50 [1, 5]: 1000 to 10000 nM | IC50 [2, 6]: < 100 nM | IC50 [2, 7]: 31.6 to 1000 nM | IC50 [3, 8]: > 1000 nM | IC50 [3, 9]: 1000 to 10000 nM

CCCNc1nccc(-c2sc(C(C)C)nc2-c2ccc(F)c(NS(=O)(=O)c3cc(F)ccc3F)c2)n1 [Example 120]
IC50 [1, 4]: 100 to 1000 nM | IC50 [1, 5]: 100 to 1000 nM | IC50 [2, 6]: < 100 nM | IC50 [2, 10]: 3.16 to 31.6 nM | IC50 [3, 8]: 100 to 1000 nM | IC50 [3, 9]: 100 to 1000 nM

Cc1ccccc1S(=O)(=O)Nc1cccc(-c2nc(C(C)C)sc2-c2ccnc(NCC(C)C)n2)c1F [Example 39, N-[2-Fluoro-3-(2-(1-methylethyl)-5-{2-[(2-methylpropyl)amino]-4-pyrimidinyl}-1,3-thiazol-4-yl)phenyl]-2-methylbenzenesulfonamide]
IC50 [1, 4]: 100 to 1000 nM | IC50 [1, 5]: 100 to 1000 nM | IC50 [2, 6]: < 100 nM | IC50 [2, 10]: 3.16 to 31.6 nM | IC50 [3, 8]: 100 to 1000 nM | IC50 [3, 9]: 100 to 1000 nM

Nc1nccc(-c2sc(N3CCOCC3)nc2-c2cccc(NS(=O)(=O)c3cccnc3)c2F)n1 [Example 61, N-{3-[5-(2-Amino-4-pyrimidinyl)-2-(4-morpholinyl)-1,3-thiazol-4-yl]-2-fluorophenyl}-3-pyridinesulfonamide]
IC50 [1, 4]: 100 to 1000 nM | IC50 [1, 5]: 100 to 1000 nM | IC50 [2, 6]: < 100 nM | IC50 [2, 7]: ≤ 3.16 nM | IC50 [3, 8]: 100 to 1000 nM | IC50 [3, 9]: 100 to 1000 nM
